{
  "source": "patent US20220193072A1",
  "about": "“METHODS OF TREATING BREAST CANCER WITH TETRAHYDRONAPHTHALENE DERIVATIVES AS ESTROGEN RECEPTOR DEGRADER” (Arvinas Operations, Inc., priority 2020, published 2022)",
  "key": {"[1]": {"biological_target": "T1, ERα (Homo sapiens, UniProt P03372)", "T1 construct": "robustly degrades ER in ER-positive breast cancer cell lines; endogenous in cells; host or cells: MCF7, T47D (cell culture); MCF7 and tamoxifen-resistant MCF7 xenograft tumours in mice", "T1 sequence (P03372 1-595)": "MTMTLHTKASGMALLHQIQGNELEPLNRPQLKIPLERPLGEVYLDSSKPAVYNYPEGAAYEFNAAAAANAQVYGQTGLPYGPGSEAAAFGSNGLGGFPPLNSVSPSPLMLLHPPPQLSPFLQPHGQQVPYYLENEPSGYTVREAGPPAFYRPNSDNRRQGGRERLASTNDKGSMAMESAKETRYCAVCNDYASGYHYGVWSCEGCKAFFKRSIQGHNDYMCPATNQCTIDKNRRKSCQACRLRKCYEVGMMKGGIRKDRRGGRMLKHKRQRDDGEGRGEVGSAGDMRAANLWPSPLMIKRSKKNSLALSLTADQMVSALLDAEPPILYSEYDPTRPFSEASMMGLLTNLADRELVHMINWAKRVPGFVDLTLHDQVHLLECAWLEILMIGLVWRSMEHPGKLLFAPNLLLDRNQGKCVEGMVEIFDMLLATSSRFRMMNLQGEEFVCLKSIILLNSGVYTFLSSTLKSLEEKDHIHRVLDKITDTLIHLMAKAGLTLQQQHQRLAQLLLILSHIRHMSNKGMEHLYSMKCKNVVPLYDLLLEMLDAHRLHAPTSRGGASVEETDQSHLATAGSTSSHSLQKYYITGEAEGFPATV", "assay": "In vivo ERα degradation in MCF7 xenograft tumors (immunoblot)", "parameters": "species or system NOD/SCID mice", "conditions": "MCF7/estradiol model, fulvestrant 200 mg/kg", "protocol": "Approximately 18 hours after the final administration, mice were sacrificed, and MCF7 xenografts were harvested and lysed to determine ER levels by immunoblotting. […] Diet was supplemented with peanut butter to help maintain body weights.\nSpecies: NOD/SCID female mice (Charles River, 6-7 weeks old upon arrival).\nAnimal handling: Axial mammary fat pad implantation of 5×10^6 MCF7 cells/200 per mouse (17β-estradiol 0.36 mg 90-day pellet implanted day before).\nDosing: Oral (gavage), once a day (QD) for 3 days (QD×3). Vehicle: 2% Tween80/PEG400 (‘PEG/Tween’).\nSampling: Terminal sacrifice was ˜18 hrs after last dose; tumors were harvested, divided and flash frozen. ERα levels were determined by immunoblotting.\nCell Lysis: flash frozen tumors were removed from −80° C. storage and placed on dry ice. RIPA lysis buffer and Halt protease inhibitors were used at 400 μl per tumor sample. A steel ball (5 mm) was placed in each sample for tissue disruption. Samples were lysed with TissueLyzer at 24 Hz for 4 minutes. The homogenization was stopped half way through the process and the block flipped over for the duration of the process. Steel beads were pulled out of the tubes and the lysates were spun down at 21,000×g for 15 minutes at 4° C. Lysates were then measured for total protein concentration by BCA (per manufacturer's protocol).\nDetection of proteins by immunoblot: lysates were mixed with sample buffer and reducing agent (per manufacturer's protocol). Samples were denatured at 95° C. for 5 minutes in thermal cycler. Samples were cooled and spun down (5000×g; 1 minute) prior to loading on gel. Gels were loaded with 10 μg total protein per lane. Samples were loaded on 4-15% Criterion Tris/Glycine gels and run for 25 minutes at 250 constant volts in 1×Tris/Glycine/SDS buffer. Protein was transferred from gels to nitrocellulose with Bio-Rad Turbo on default setting. All blots were rinsed with distilled water and blocked for 1 hour at RT in 5% BSA in TBS-T (TBS with 0.1% Tween) on rocker. The blots were cut so that beta-actin and ERα can be detected from the same lane/sample.\nBlots were incubated with primary antibody in 5% BSA in TBST (0.1%) overnight at 4° C. on rocker:\nBlot was washed with TBST (0.1%) three times for 5 minutes on rocker at RT. Secondary antibody was added, and blots incubated at RT on rocker for 1 hour (1:18,000 anti-rabbit-HRP in TBS-T). Blots were washed 3 times in TBST (0.1%) for 5 minutes at RT on the rocker. Signal was developed with Pierce WestFemto maximum sensitivity substrate for 5 minutes and blots imaged on BioRad ChemiDoc.\nSampling: Tumors were measured twice weekly. Terminal sacrifice was ˜18 hr after last dose; tumors were harvested, divided, and flash frozen. ERα levels were determined by immunoblotting.\nAt study termination, the tumors were removed from the mice, and ERα levels were determined by immunoblotting the tumor homogenates.\nSampling: tumors were measured twice weekly. Terminal sacrifice was ˜18 hr after last dose; tumors were harvested, divided, and flash frozen. ERα levels were determined by immunoblotting."}, "[2]": {"tested_on": "MCF7 xenograft", "assay": "MCF7 orthotopic xenograft, combination with CDK4/6 inhibitor", "type": "in vivo, NOD/SCID mice"}, "[3]": {"tested_on": "ESR1 (Y537S) PDX", "assay": "ESR1 (Y537S) PDX model tumor growth inhibition", "type": "in vivo", "conditions": "ESR1 (Y537S) PDX, fulvestrant 200 mg/kg SC twice/week, 2 weeks"}, "[4]": {"biological_target": "T2, ERα (ESR1 Y537S) (Homo sapiens, UniProt P03372, Y537S)", "T2 construct": "a hormone-independent patient-derived xenograft model; from tissue; host or cells: ESR1 (Y537S) patient-derived xenograft tumour grown in mice", "T2 sequence (P03372 1-595 Y537S)": "T1 sequence (P03372 1-595) with Y537S", "assay": "Tumor ERα levels in ESR1 (Y537S) PDX model", "type": "in vivo", "conditions": "ESR1 (Y537S) PDX, fulvestrant 200 mg/kg SC twice/week, 2 weeks"}, "[5]": {"conditions": "cited from earlier work; for progression free survival (PFS): minimum follow-up 18 months"}, "[6]": {"biological_target": "T3, ER (Homo sapiens, UniProt P03372)", "T3 sequence (P03372 1-595)": "T1 sequence (P03372 1-595)", "conditions": "after 6 months of fulvestrant treatment; cited from earlier work"}},
  "note": "Positions count from the first letter of the chain named. Like-named read-outs stand apart in the source and are kept apart here.",
  "data": [
    {"compound": "C[C@]12CC[C@@H]3c4ccc(O)cc4C[C@@H](CCCCCCCCC[S+]([O-])CCCC(F)(F)C(F)(F)F)[C@H]3[C@@H]1CC[C@@H]2O", "note": "(stereo partly shown) [Fulvestrant]", "values": [
      {"measurement": "% ERα ↓", "setting": "[1]", "result": "None"},
      {"measurement": "Day 28 Tumor volume (mean ± SD)", "setting": "[2]; fulvestrant 200 mg/kg SC", "result": "489 ± 154", "unit": "mm^3"},
      {"measurement": "TGI (% vehicle)", "setting": "[2]; fulvestrant 200 mg/kg SC", "result": 46, "unit": "% vehicle"},
      {"measurement": "tumor growth inhibition (TGI)", "setting": "[2]; single agent 200 mg/kg subcutaneous, twice/week for 2 weeks", "result": 46, "unit": "%"},
      {"measurement": "tumor growth inhibition (TGI)", "setting": "[3]", "result": 62, "unit": "%"},
      {"measurement": "reduction of tumor ERα levels", "setting": "[4]", "result": 63, "unit": "%"},
      {"measurement": "progression free survival (PFS)", "setting": "[5]; fulvestrant 250 mg", "result": 5.4, "unit": "months"},
      {"measurement": "response rate", "setting": "[5]; fulvestrant 250 mg, CI 10.5-19.4%", "result": 14.6, "unit": "%"},
      {"measurement": "overall survival (OS)", "setting": "[5]; fulvestrant 250 mg", "result": 22.8, "unit": "months"},
      {"measurement": "progression free survival (PFS)", "setting": "[5]; fulvestrant 500 mg", "result": 6.5, "unit": "months"},
      {"measurement": "response rate", "setting": "[5]; fulvestrant 500 mg, 95% CI 9.7-18.8%", "result": 13.8, "unit": "%"},
      {"measurement": "overall survival (OS)", "setting": "[5]; fulvestrant 500 mg", "result": 25.1, "unit": "months"},
      {"measurement": "ER baseline levels remaining", "setting": "[6]", "result": "up to 50%"}
    ]}
  ]
}
